Where two headings read alike, the source gives them in different places.
Columns and labels:
Simian Virus 40 (SV-40) [1] = test: Virus inactivation of SV-40 in RC-MAP using the blood bag system (Example 2), TCID50 on CV-1 cells; type: cell-based; details: for inactivation effect (positive control TCID50 minus inactivated solution TCID50): 7 hours; for TCID50 of the inactivated solution: room temperature (in the dark) 7 hours, positive control 6.0 log10
Protocol: Blood was collected from healthy humans and RC-MAP (concentrated erythrocyte preparation) was prepared, which was introduced into the blood bag 1 (400-mL CPDA blood bag) in the blood bag system shown in FIG. 2. Thereafter, 10^8 TCID50/mL (50% infection endpoint) of SV-40 per 2 mL of RC-MAP was added to the blood bag 1 from the air-bleeding tube 10 by using a syringe, and the blood bag 1 was gently stirred.
Thereafter, the blood bag was stirred gently, and the resultant was allowed to react at room temperature (in the dark) for 7 hours to effect inactivation. After completion of the inactivation, 4 mL of the inactivated solution was sampled from the blood bag 1 and centrifuged at 3,000 rpm for 1 minute. The supernatant was used for the evaluation of virus inactivation.
(§1) Evaluation of virus inactivation was performed by TCID50 using a 96-well microplate. In a 25-cm^2 cell culture flask, a CV-1 cell (simian kidney derived cell), which is a proliferating cell of SV-40, was cultivated in a 10% fetal bovine serum-added MEM medium for 3 days for proliferation. Thereafter, the cells were floated with 0.5 mL of 0.05% trypsin-EDTA, to prepare a cell suspension in 25 mL of the 10% fetal bovine serum-added MEM medium.
(§2) After 90 μL of the cell suspension was added to each well of the 96-well microplate, 10 μL of the reaction mixture (the above-mentioned supernatant) was added to each well of the first column of the 96-well microplate and pipetting was performed to stir the resultant. Further, 10 μL of the solution in each well of the first column was added to each well of the second column of the microplate to perform 10-fold gradual dilution operation. This operation was repeated up to the wells of the twelfth column of the microplate. The microplate was incubated in a 5% carbon dioxide gas incubator at 37° C. for 10 days. Then, a cytopathic effect (CPE) by SV-40 was observed using an optical microscope, and TCID50 were calculated as logarithmic values (log10).
(§3) At the same time, TCID50 of a positive control, in which a phosphate buffer was added instead of the platinum compound, was calculated as a logarithmic value (log10). A value obtained by subtracting TCID50 of the inactivated solution from TCID50 of the positive control was defined as a killing effect (inactivation effect).
In FIG. 4, the inactivation effect means a value obtained by subtracting TCID50 of the inactivated solution (logarithmic value (log10)) from TCID50 of the above-mentioned positive control (logarithmic value (log10)).

Simian Virus 40 (SV-40) [2] = test: Virus inactivation of SV-40 in RC-MAP (Example 1), TCID50 on CV-1 cells; type: cell-based; details: for inactivation effect (positive control TCID50 minus inactivated solution TCID50): 7 hours; for TCID50 of the inactivated solution: room temperature (in the dark) 7 hours, positive control 6.5 log10
Protocol: In a 400-mL CPDA blood bag in the blood bag system shown in FIG. 1, RC-MAP (concentrated erythrocyte preparation) was prepared from blood collected from healthy humans. Thereafter, 2 mL of RC-MAP was sampled in a 15-mL centrifuging tube aseptically, and 2 mL of 10^8 TCID50/mL (50% infection end point) SV-40 was added thereto, followed by gentle stirring. […] After completion of the inactivation, the inactivated solution was centrifuged at 3,000 rpm for 1 minute and the supernatant was used for the evaluation of virus inactivation.
as §1, §2
as §3, with “effect.” for “effect (inactivation effect).”
In FIG. 3, the inactivation effect means a value obtained by subtracting TCID50 of the inactivated solution (logarithmic value (log10)) from TCID50 of the above-mentioned positive control (logarithmic value (log10)).

Yersinia enterocolitica [3] = test: Bacteria inactivation of Yersinia enterocolitica in RC-MAP (Example 5), colony count; type: cell-based; details: for Number of survival bacteria: RC-MAP, 7 hours
Protocol: After gentle stirring, the resultant was allowed to react at room temperature (in the dark) for 7 hours to effect inactivation.
This was cultivated at 31° C. for 2 days.
Note that solution to which no cisplatin was added was defined as a positive control. A bacteria inactivation effect was defined by a value obtained by subtracting the number of survival bacteria (logarithmic value (log10)) in cisplatin-added inactivated solution from the number of survival bacteria (logarithmic value (log10)) in the positive control.

[4] = tested on: Human Cytomegalovirus (HCMV); test: Virus inactivation of HCMV in RC-MAP (Example 3), TCID50 on HEL cells; type: cell-based; details: 1.67 mM solution, 7 hours
Protocol: In the blood bag 1 (a 400-mL CPDA blood bag) in the blood bag system shown in FIG. 1, RC-MAP (concentrated erythrocyte preparation) was prepared from blood collected from healthy humans. Thereafter, 2 mL of RC-MAP was sampled in a 15-mL centrifuging tube aseptically, and 2 mL of 10^7 TCID50/mL HCMV was added thereto, followed by gentle stirring. […] After completion of the inactivation, the inactivated solution was centrifuged at 3,000 rpm for 1 minute and the supernatant was used for the evaluation of virus inactivation.
Evaluation of virus inactivation was performed by TCID50 using a 96-well microplate. In a 25-cm^2 cell culture flask, a HEL cell (primary human embryonic lung fibroblasts cell), which is a proliferating cell of HCMV, was cultivated in a 10% fetal bovine serum-added MEM medium for 3 days for proliferation. […]
After 90 μL of this cell suspension was added to each well of the 96-well microplate, 10 μL of the solution (the above-mentioned supernatant) was added to each well of the first column of the 96-well microplate and pipetting was performed to stir the resultant. […] Then, a cytopathic effect (CPE) by HCMV was observed using an optical microscope, and TCID50 was calculated as a logarithmic value (log10) . At the same time, TCID50 of a positive control, in which a phosphate buffer was added instead of the platinum compound, was calculated as a logarithmic value (log10).

[5] = tested on: initial culture cells of Ehrlich cancer; details: cited from earlier work
[6] = tested on: Mouse Hepatitis Virus (MHV); test: Virus inactivation of MHV in RC-MAP (Example 4), TCID50 on DBT cells; type: cell-based; details: 1.67 mM solution, 7 hours
Protocol: Thereafter, 2 mL of RC-MAP was sampled in a 15-mL centrifuging tube aseptically, and 2 mL of 10^7 TCID50/mL MHV was added thereto, followed by gentle stirring. […] After completion of the inactivation, the inactivated solution was centrifuged at 3,000 rpm for 1 minute and the supernatant was used for the evaluation of virus inactivation.
Evaluation of virus inactivation was performed by TCID50 using a 96-well microplate. In a 25-cm^2 cell culture flask, a DBT cell, which is a proliferating cell of MHV, was cultivated in a 5% fetal bovine serum-added MEM medium for 3 days for proliferation. Thereafter, the cells were floated with 0.5 mL of 0.05% trypsin-EDTA, to prepare a cell suspension in 25 mL of the 10% fetal bovine serum-added MEM medium.
After 90 μL of this cell suspension was added to each well of the 96-well microplate, 10 μL of the solution was added to each well of the first column of the 96-well microplate and pipetting was performed to stir the resultant. […] Then, a cytopathic effect (CPE) by MHV was observed using an optical microscope, and TCID50 was calculated as a logarithmic value (log10). At the same time, TCID50 of a positive control, in which a phosphate buffer was added instead of the platinum compound, was calculated as a logarithmic value (log10). […]

Yersinia enterocolitica [7] = tested on: Yersinia enterocolitica
Protocol: In the blood bag 1 (400-mL CPDA blood bag) of the blood bag system shown in FIG. 1, RC-MAP (concentrated erythrocyte preparation) was prepared from blood collected from healthy humans. […] To the resultant was added 2 mL of a 168 mM L-methionine solution having dissolved L-methionine in physiological saline, for a reaction at room temperature for 30 minutes.
Similarly, as neutralizing agents, L-methionine solutions having concentrations of 84 mM, 42 mM, 21 mM, 10.5 mM, 5.25 mM, 2.63 mM, and 1.31 mM, respectively, obtained by dissolving L-methionine in physiological saline or sodium thiosulfate solutions having concentrations of 168 mM, 84 mM, 42 mM, 21 mM, 10.5 mM, 5.25 mM, 2.63 mM, and 1.31 mM, respectively, obtained by dissolving sodium thiosulfate in physiological saline were used to effect a reaction. […] Thereafter, 10 μL of 10^8 CFU/mL Yersinia enterocolitica was added to each solution, and the number of bacterial cells after stirring was measured.
Measurement of bacterial cells was conducted on solutions obtained by repeating 3 times the 10-fold gradual dilution operation consisting of adding 1 mL of the inactivated solution to 9 mL of sterilized physiological saline, stirring the mixture by using a touch mixer, and further adding 1 mL of the resultant to 9 mL of physiological saline for dilution. […], 1 mL or 100 μL of the diluted solution in each stage was mixed in a petri dish having a diameter of 9 cm and containing 15 mL soybean casein digest agar medium. This was cultivated at 31° C. for 2 days. The number of colonies emerged was defined as number of survival bacteria, and a logarithmic value (log10) thereof was defined as a neutralization effect.

SV-40 = details: 3.5 mM cisplatin solution then 175 mM sodium thiosulfate solution
Protocol: as §1
as §2, with “[…] A value obtained by subtracting TCID50 of the inactivated solution from TCID50 of the positive control was defined as” for “Then,”, “killing effect.” for “cytopathic effect (CPE) by SV-40 was observed using an optical microscope, and TCID50 were calculated as logarithmic values (log10).”

[NH2][Pt]1([NH2])[O]CC(=O)[O]1 [nedaplatin]
inactivation effect (positive control TCID50 minus inactivated solution TCID50) (Simian Virus 40 (SV-40) [1]; 3.5 mM solution): 3.5 log10
TCID50 of the inactivated solution (Simian Virus 40 (SV-40) [1]; 3.5 mM solution): 2.5 log10
inactivation effect (positive control TCID50 minus inactivated solution TCID50) (Simian Virus 40 (SV-40) [2]; 3.5 mM solution): 4.25 log10
TCID50 of the inactivated solution (Simian Virus 40 (SV-40) [2]; 3.5 mM solution): 2.25 log10

N.N.[Cl][Pt][Cl] [cisplatin]
Bacteria killing effect (Yersinia enterocolitica [3]; cisplatin 0.0209 mM): 0.18 log10
Number of survival bacteria (Yersinia enterocolitica [3]; cisplatin 0.0209 mM): 4.82 log10
Bacteria killing effect (Yersinia enterocolitica [3]; cisplatin 0.042 mM): 0.48 log10
Number of survival bacteria (Yersinia enterocolitica [3]; cisplatin 0.042 mM): 4.52 log10
Bacteria killing effect (Yersinia enterocolitica [3]; cisplatin 0.083 mM): 1.21 log10
Number of survival bacteria (Yersinia enterocolitica [3]; cisplatin 0.083 mM): 3.79 log10
Bacteria killing effect (Yersinia enterocolitica [3]; cisplatin 0.17 mM): 2.20 log10
Number of survival bacteria (Yersinia enterocolitica [3]; cisplatin 0.17 mM): 2.80 log10
Bacteria killing effect (Yersinia enterocolitica [3]; cisplatin 0.33 mM): 2.73 log10
Number of survival bacteria (Yersinia enterocolitica [3]; cisplatin 0.33 mM): 2.27 log10
Bacteria killing effect (Yersinia enterocolitica [3]; cisplatin 0.67 mM): 3.52 log10
Number of survival bacteria (Yersinia enterocolitica [3]; cisplatin 0.67 mM): 1.48 log10
Bacteria killing effect (Yersinia enterocolitica [3]; cisplatin 1.33 mM): 4.94 log10
Number of survival bacteria (Yersinia enterocolitica [3]; cisplatin 1.33 mM, positive control 5.00 log10): 0.06 log10
inactivation effect (positive control TCID50 minus inactivated solution TCID50) (Simian Virus 40 (SV-40) [1]; 1.67 mM solution): 5.0 log10
TCID50 of the inactivated solution (Simian Virus 40 (SV-40) [1]; 1.67 mM solution): 1.0 log10
inactivation effect (positive control TCID50 minus inactivated solution TCID50) (Simian Virus 40 (SV-40) [2]; 1.67 mM solution): 5.25 log10
TCID50 of the inactivated solution (Simian Virus 40 (SV-40) [2]; 1.67 mM solution): 1.25 log10
HCMV killed (anti-HCMV inactivation effect) [4]: 4.00 log10
effective concentration against cancer cells (antiviral activity (IC50)) [5]: 0.25 µg/mL
MHV killed (MHV inactivation effect) [6]: 4.00 log10

CSCC[C@H](N)C(=O)O [methionine, L-methionine]
Number of survival bacteria (neutralization effect) (Yersinia enterocolitica [7]; methionine 0.44 mM after 4.00 mM cisplatin solution): 0.34 log10
Number of survival bacteria (neutralization effect) (Yersinia enterocolitica [7]; methionine 0.88 mM after 4.00 mM cisplatin solution): 0.73 log10
Number of survival bacteria (neutralization effect) (Yersinia enterocolitica [7]; methionine 1.75 mM after 4.00 mM cisplatin solution): 0.89 log10
Number of survival bacteria (neutralization effect) (Yersinia enterocolitica [7]; methionine 3.5 mM after 4.00 mM cisplatin solution): 1.22 log10
Number of survival bacteria (neutralization effect) (Yersinia enterocolitica [7]; methionine 7 mM after 4.00 mM cisplatin solution): 1.43 log10
Number of survival bacteria (neutralization effect) (Yersinia enterocolitica [7]; methionine 14 mM after 4.00 mM cisplatin solution): 1.87 log10
Number of survival bacteria (neutralization effect) (Yersinia enterocolitica [7]; methionine 28 mM after 4.00 mM cisplatin solution): 3.36 log10
Number of survival bacteria (neutralization effect) (Yersinia enterocolitica [7]; methionine 56 mM after 4.00 mM cisplatin solution, 30 minutes, same as without cisplatin): 5.1 log10

N.N.O=C([O-])C1(C(=O)[O-])CCC1.[Pt+2] [carboplatin]
inactivation effect (positive control TCID50 minus inactivated solution TCID50) (Simian Virus 40 (SV-40) [1]; 3.5 mM solution): 1.5 log10
TCID50 of the inactivated solution (Simian Virus 40 (SV-40) [1]; 3.5 mM solution): 4.5 log10
inactivation effect (positive control TCID50 minus inactivated solution TCID50) (Simian Virus 40 (SV-40) [2]; 3.5 mM solution): 1.00 log10
TCID50 of the inactivated solution (Simian Virus 40 (SV-40) [2]; 3.5 mM solution): 5.50 log10

O=S([O-])([O-])=S.[Na+].[Na+] [sodium thiosulfate]
Number of survival bacteria (neutralization effect) (Yersinia enterocolitica [7]; sodium thiosulfate 0.44 mM after 4.00 mM cisplatin solution): 0.44 log10
Number of survival bacteria (neutralization effect) (Yersinia enterocolitica [7]; sodium thiosulfate 0.88 mM after 4.00 mM cisplatin solution): 0.86 log10
Number of survival bacteria (neutralization effect) (Yersinia enterocolitica [7]; sodium thiosulfate 1.75 mM after 4.00 mM cisplatin solution): 1.28 log10
Number of survival bacteria (neutralization effect) (Yersinia enterocolitica [7]; sodium thiosulfate 3.5 mM after 4.00 mM cisplatin solution): 1.51 log10
Number of survival bacteria (neutralization effect) (Yersinia enterocolitica [7]; sodium thiosulfate 7 mM after 4.00 mM cisplatin solution): 1.98 log10
Number of survival bacteria (neutralization effect) (Yersinia enterocolitica [7]; sodium thiosulfate 14 mM after 4.00 mM cisplatin solution): 2.35 log10
Number of survival bacteria (neutralization effect) (Yersinia enterocolitica [7]; sodium thiosulfate 28 mM after 4.00 mM cisplatin solution): 4.22 log10
Number of survival bacteria (neutralization effect) (Yersinia enterocolitica [7]; sodium thiosulfate 56 mM after 4.00 mM cisplatin solution, 30 minutes, same as without cisplatin): 5.1 log10
killing effect (inactivation effect of SV-40) after neutralization (SV-40): no killing effect
TCID50 after inactivator and neutralizing agent (SV-40; 30 minutes, positive control 6.00 log10): 6.00 log10
